Reference: ChEMBL document CHEMBL1142021, “Aglycon specificity profiling of alpha-glucosidases using synthetic probes” (Bioorg Med Chem Lett, 2005)

The compounds below were run against T1, Alpha-glucosidase (Apis mellifera) (UniProt Q17058) (assay: Inhibition of family 13 alpha-glucosidase isoform III from honey bee at 1 umol/mL).
T1 sequence (whole entry): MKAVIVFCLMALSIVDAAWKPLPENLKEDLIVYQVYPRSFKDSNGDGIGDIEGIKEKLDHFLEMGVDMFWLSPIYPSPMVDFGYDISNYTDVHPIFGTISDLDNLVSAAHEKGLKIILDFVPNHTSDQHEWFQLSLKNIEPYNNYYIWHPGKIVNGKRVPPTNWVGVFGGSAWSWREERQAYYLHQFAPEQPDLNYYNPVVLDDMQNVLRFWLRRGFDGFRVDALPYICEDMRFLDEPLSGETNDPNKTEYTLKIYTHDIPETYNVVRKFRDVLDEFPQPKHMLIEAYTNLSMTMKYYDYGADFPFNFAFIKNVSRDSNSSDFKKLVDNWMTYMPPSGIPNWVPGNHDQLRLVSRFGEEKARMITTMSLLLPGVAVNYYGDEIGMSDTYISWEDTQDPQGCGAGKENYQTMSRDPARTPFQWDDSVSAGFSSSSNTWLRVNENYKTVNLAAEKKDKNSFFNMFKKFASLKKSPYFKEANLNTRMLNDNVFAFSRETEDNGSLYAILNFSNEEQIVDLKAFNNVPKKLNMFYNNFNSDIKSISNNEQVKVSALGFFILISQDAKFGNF

| inhibition [%] | SMILES |
| --- | --- |
| < 1 | CC(C)(C)C(=O)NCC1OC(CO)C(O)C(O)C1O (stereo not drawn) |
| < 1 | CC(=O)NCC1OC(CO)C(O)C(O)C1O (stereo not drawn) |
| < 1 | O=C(CO)NCC1OC(CO)C(O)C(O)C1O (stereo not drawn) |
| 3.2 | O=C(CCO)NCC1OC(CO)C(O)C(O)C1O (stereo not drawn) |
| < 1 | O=C(CCCCCO)NCC1OC(CO)C(O)C(O)C1O (stereo not drawn) |
| < 1 | O=C(NCC1OC(CO)C(O)C(O)C1O)c1ccccc1 (stereo not drawn) |
| < 1 | O=C(CCCCO)NCC1OC(CO)C(O)C(O)C1O (stereo not drawn) |
| < 1 | O=C(CCCO)NCC1OC(CO)C(O)C(O)C1O (stereo not drawn) |

Each compound was assayed against T2, Lysosomal alpha-mannosidase (Homo sapiens) (UniProt O00754) (assay: Inhibition of alpha-Mannosidase at 5 umol/mL).
T2 sequence (whole entry): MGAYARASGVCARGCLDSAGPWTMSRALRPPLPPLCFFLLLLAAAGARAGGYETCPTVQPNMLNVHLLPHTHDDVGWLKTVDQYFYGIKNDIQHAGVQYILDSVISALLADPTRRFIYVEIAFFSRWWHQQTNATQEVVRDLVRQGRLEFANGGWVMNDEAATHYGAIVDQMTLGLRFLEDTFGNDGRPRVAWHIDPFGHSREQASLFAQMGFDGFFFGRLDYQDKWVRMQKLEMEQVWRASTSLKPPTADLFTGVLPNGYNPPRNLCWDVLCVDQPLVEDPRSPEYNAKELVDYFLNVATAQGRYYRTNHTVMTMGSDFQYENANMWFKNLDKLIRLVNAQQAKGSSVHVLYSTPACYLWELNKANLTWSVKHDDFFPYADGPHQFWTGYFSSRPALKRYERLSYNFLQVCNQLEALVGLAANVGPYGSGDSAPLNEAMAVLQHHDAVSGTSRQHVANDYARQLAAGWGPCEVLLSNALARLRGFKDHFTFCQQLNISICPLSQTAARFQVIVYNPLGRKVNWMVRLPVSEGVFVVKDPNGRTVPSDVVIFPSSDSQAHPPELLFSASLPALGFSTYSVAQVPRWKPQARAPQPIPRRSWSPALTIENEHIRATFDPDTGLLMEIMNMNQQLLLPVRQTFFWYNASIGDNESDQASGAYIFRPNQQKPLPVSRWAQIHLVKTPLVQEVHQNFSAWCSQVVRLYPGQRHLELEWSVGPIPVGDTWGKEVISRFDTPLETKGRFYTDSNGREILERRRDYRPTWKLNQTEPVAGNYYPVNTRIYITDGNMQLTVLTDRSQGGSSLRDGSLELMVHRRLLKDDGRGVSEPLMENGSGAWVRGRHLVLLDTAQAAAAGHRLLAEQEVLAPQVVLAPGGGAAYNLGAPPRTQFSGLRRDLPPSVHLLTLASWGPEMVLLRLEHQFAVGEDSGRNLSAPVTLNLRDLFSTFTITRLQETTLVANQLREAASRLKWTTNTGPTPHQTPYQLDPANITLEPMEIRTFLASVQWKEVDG

| inhibition [%] | SMILES |
| --- | --- |
| < 1 | CC(C)(C)C(=O)NCC1OC(CO)C(O)C(O)C1O (stereo not drawn) |
| < 1 | CC(=O)NCC1OC(CO)C(O)C(O)C1O (stereo not drawn) |
| < 1 | O=C(CO)NCC1OC(CO)C(O)C(O)C1O (stereo not drawn) |
| < 1 | O=C(CCO)NCC1OC(CO)C(O)C(O)C1O (stereo not drawn) |
| < 1 | O=C(CCCCCO)NCC1OC(CO)C(O)C(O)C1O (stereo not drawn) |
| < 1 | O=C(NCC1OC(CO)C(O)C(O)C1O)c1ccccc1 (stereo not drawn) |
| < 1 | O=C(CCCCO)NCC1OC(CO)C(O)C(O)C1O (stereo not drawn) |

Each compound was assayed against T3, Alpha-glucosidase (Aspergillus niger) (UniProt P56526) (assay: Inhibition of Aspergillus niger glucosidase (of family 31 alpha-glucosidase) at 1 umol/mL).
T3 sequence (whole entry): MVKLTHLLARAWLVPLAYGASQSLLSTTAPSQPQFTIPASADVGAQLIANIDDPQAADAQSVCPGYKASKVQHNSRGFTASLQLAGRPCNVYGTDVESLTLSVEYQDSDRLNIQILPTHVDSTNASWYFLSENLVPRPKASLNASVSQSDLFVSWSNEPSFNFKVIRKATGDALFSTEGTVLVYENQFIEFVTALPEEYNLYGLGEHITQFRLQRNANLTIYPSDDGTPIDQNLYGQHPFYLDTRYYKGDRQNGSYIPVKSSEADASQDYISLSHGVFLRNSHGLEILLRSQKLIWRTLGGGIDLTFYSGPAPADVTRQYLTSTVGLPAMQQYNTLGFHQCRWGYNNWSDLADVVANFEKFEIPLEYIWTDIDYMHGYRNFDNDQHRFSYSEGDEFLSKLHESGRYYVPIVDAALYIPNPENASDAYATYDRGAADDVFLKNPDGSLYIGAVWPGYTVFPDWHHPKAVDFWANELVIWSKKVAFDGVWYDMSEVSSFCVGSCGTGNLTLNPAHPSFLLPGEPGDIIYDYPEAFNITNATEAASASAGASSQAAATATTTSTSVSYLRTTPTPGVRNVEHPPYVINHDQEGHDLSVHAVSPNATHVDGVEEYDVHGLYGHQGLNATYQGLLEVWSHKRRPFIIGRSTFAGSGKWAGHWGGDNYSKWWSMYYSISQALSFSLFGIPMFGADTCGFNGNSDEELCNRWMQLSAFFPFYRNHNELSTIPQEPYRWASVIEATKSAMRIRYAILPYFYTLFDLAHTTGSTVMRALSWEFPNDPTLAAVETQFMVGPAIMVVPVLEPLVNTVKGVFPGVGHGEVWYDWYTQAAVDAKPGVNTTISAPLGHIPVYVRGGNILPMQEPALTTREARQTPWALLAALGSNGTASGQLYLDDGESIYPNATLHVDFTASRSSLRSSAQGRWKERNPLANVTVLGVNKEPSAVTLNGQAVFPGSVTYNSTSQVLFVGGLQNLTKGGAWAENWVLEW

| inhibition [%] | SMILES |
| --- | --- |
| 1.2 | CC(C)(C)C(=O)NCC1OC(CO)C(O)C(O)C1O (stereo not drawn) |
| 23.3 | CC(=O)NCC1OC(CO)C(O)C(O)C1O (stereo not drawn) |
| 6.6 | O=C(CO)NCC1OC(CO)C(O)C(O)C1O (stereo not drawn) |
| 2.6 | O=C(CCO)NCC1OC(CO)C(O)C(O)C1O (stereo not drawn) |
| < 1 | O=C(CCCCCO)NCC1OC(CO)C(O)C(O)C1O (stereo not drawn) |
| 14 | O=C(NCC1OC(CO)C(O)C(O)C1O)c1ccccc1 (stereo not drawn) |
| 6.8 | O=C(CCCCO)NCC1OC(CO)C(O)C(O)C1O (stereo not drawn) |
| < 1 | O=C(CCCO)NCC1OC(CO)C(O)C(O)C1O (stereo not drawn) |
